{"source": "patent US20090029956A1", "about": "“Substance mixture” (priority 2005, published 2009)", "test_system": "human ciliary cells", "test": "Flicker frequency and regeneration capability of human ciliary cells, photometric method", "type": "cell-based", "settings": "for Mean value in percent, 20 min test Solution: (II) / Mean value in percent, 20 min NaCl 0.9% (III): Time I = 100; for Mean value in percent, 20 min NaCl 0.9% (III): Time III (regeneration)", "experimental": "In comparison with this, the seriously damaging effect of preservatives (on the basis of benzalkonium chloride, BAC) used in conventional cortisone preparations on human ciliary cells was compared. The flicker frequency was determined in a manner known per se by means of a photometric method. Solutions and fluticasone propionate and mixed solutions of fluticasone propionate with N-chlorotaurine sodium (NCT) were prepared in accordance with the following table: Mucous membrane cells were first incubated with an isotonic NaCl solution for 20 minutes (Time I), subsequently incubated with the solutions A, B and C for 20 minutes (Time II) and subsequently incubated in an isotonic solution for a further 20 minutes (Time III). Parallel to this, […] mucous membrane cells were incubated according to the same pattern in comparison with BAC solutions (concentrations of 0.04 mg/ml; 0.1 mg/ml; 0.2 mg/ml; 0.5 mg/ml). The results of the regeneration capability of the ciliary cells after treatment with the solutions A, B and C were compared with the results after the treatment with the BAC solutions."}
{"substance": "benzalkonium chloride [BAC]", "values": [{"measurement": "Mean value in percent, 20 min test Solution: (II)", "setting": "0.04 mg/ml BAC", "value": 96.6, "unit": "%"}, {"measurement": "Mean value in percent, 20 min NaCl 0.9% (III)", "setting": "0.04 mg/ml BAC", "value": 100, "unit": "%"}, {"measurement": "Mean value in percent, 20 min test Solution: (II)", "setting": "0.1 mg/ml BAC", "value": 91.9, "unit": "%"}, {"measurement": "Mean value in percent, 20 min NaCl 0.9% (III)", "setting": "0.1 mg/ml BAC", "value": 93.6, "unit": "%"}, {"measurement": "Mean value in percent, 20 min test Solution: (II)", "setting": "0.2 mg/ml BAC", "value": 63.5, "unit": "%"}, {"measurement": "Mean value in percent, 20 min NaCl 0.9% (III)", "setting": "0.2 mg/ml BAC", "value": 19.4, "unit": "%"}, {"measurement": "Mean value in percent, 20 min test Solution: (II)", "setting": "0.5 mg/ml BAC", "value": 0, "unit": "%"}, {"measurement": "Mean value in percent, 20 min NaCl 0.9% (III)", "setting": "0.5 mg/ml BAC", "value": 0, "unit": "%"}, {"measurement": "Recovery of ciliary cells after treatment", "setting": "treatment with more than 0.1 mg/ml benzalkonium chloride", "value": "remain permanently damaged"}]}
